Test results from paper PMC7910569 (Scientific Data, 2021).
Where two headings read alike, the source gives them in different places.

Assays:
[1] = tested on: SARS-CoV-2; conditions: for anti-cytopathic activity against SARS-CoV-2 (in words): Caco-2, hits / concentration-response screen; for inhibition of cytopathicity in the concentration-response screen: Caco-2, compound concentrations of up to 20 µM
[2] = tested on: SARS-CoV-2; assay: microbe, parasite or virus in culture; conditions: Severe acute respiratory syndrome coronavirus 2, Caco-2, 48 h, read-out: Results SARS-CoV-2 (Caco-2) IC50
[3] = in vitro; conditions: human, Caco-2
[4] = tested on: SARS-CoV-2; format: cell-based; conditions: 10 µM
Procedure: For the primary screen, the final compound concentration was 10 µM (in 0.1% DMSO) and each compound was tested in singlicate. Concentration-response profiling of primary hits was performed in triplicate with eight concentrations ranging from 20 µM to 20 nM (half-log dilution factor, 0.1% DMSO final). For initial dose response studies, compounds were tested on three different plates to minimise the influence of plate effects. Later dose response studies at lower concentrations were also done on the same plate. Following the addition of compounds, cells were immediately infected with SARS-CoV-2 at a multiplicity of infection (MOI) of 0.01. Positive controls were prepared with the virus but no compounds, and negative controls were prepared without the virus. After 48 h, the medium was removed and cells were fixed in 3% paraformaldehyde in phosphate-buffered saline (PBS). The plates were sealed and disinfected to inactivate the virus[13] then screened by high-content imaging using the Operetta CLS platform (PerkinElmer). The image data were processed as described below and deposited on the Image Data Resource[14].
Images were acquired using a 10× objective with nine imaged fields per well in label-free mode by digital phase contrast (DPC). […] This method improves the signal-to-noise ratio and allows for image segmentation and single-cell analysis. The images were analysed using PerkinElmer Columbus v2.9.0. The analysis sequence started with cell detection (method c, common threshold 0.05, area >100 µm^2, splitting coefficient 6.5, individual threshold 0.05, contrast >0.05) and was followed by calculating morphology, intensity and position properties as well as cell confluence (Fig. 2). The data were deposited on the Image Data Resource[14]. Although we used cell confluence as a read out parameter additional parameters were calculated and deposited as well. These parameters can be used for further analysis to include parameters related to cellular stress or cytoskeletal impairment, both critical for viral replication. Well-level data were analysed in ActivityBase (IDBS) and R v3.6.1, using cell confluence as final read out parameter. […] Outliers were eliminated according to the three-sigma method. Plate-level statistical performance was assessed using the Z’factor calculation with values between 0.35 and 1.0 representing an acceptable assay. Data for the primary screen were deposited on ChEMBL[17].Concentration-response curves were fitted in GraphPad Prism v8.0.0 (GraphPad Software) using a four-parameter […] (least squares fit). Data for the dose-response screen were deposited on ChEMBL[18].
Cytopathicity assays were conducted in 96 well Cellstar plates (Greiner bio-one) using 4 wells with cells without virus (negative control) and 4 wells with cells and with virus (positive control). A three-sigma invalidation was performed on the raw data of the controls on each plate, resulting in maximal one invalidated well per plate during primary screening. During hit confirmation and dose-response studies no wells were eliminated as all wells were within three-sigma. After invalidation the plate specific z’factor was calculated and the plate was removed if quality criteria (z’factor > 0.35) were not met. Plates passing quality control were analysed and normalized as specified above. Hits were identified by having at least 75% efficiency in blocking viral cytopathicity at 10 µM.

[5] = tested on: SARS-CoV-2; conditions: Vero-E6, read-out: Reports SARS-CoV-2 (Vero-E6) IC50, cited from earlier work
[6] = tested on: MERS-CoV; conditions: Calu-3; read-out: Reports MERS (Vero-6, Calu-3 or BHK21) IC50; cited from earlier work
[7] = tested on: SARS-CoV; conditions: Calu-3; read-out: Reports SARS-CoV (Vero-E6 or Calu-3) IC50; cited from earlier work
[8] = tested on: MERS-CoV; conditions: cited from earlier work
[9] = tested on: SARS-CoV; conditions: read-out: Reports SARS-CoV (Vero-E6) IC50, cited from earlier work
[10] = tested on: MERS-CoV; conditions: BHK-21; read-out: Reports MERS (Vero-6, Calu-3 or BHK21) IC50; cited from earlier work
[11] = singlicate, Caco-2, 48 h, hit = at least 75% inhibition of cytopathicity
[12] = Vero-E6, ref 53, read-out: Reports MERS (Vero-E6) IC50

Q: For `Cc1c(C(=O)Nc2ccc(N3C[C@@H](C)O[C@@H](C)C3)nc2)cccc1-c1ccc(OC(F)(F)F)cc1` [LDE225], which “anti-cytopathic activity against SARS-CoV-2 (in words)” value (from here on “anti-cytopathic activity”) [1] is on record?
A: identified

Q: For `O[C@@H](COc1cccc2ncccc12)CN1CCN([C@@H]2c3ccccc3[C@@H]3[C@H](c4ccccc42)C3(F)F)CC1` [LY335979, zosuquidar], which “anti-cytopathic activity” value [1] is on record?
A: identified

Q: For `CC(=NNC(=S)N1CC2CCC(CC2)C1)c1ccccn1` [NSC319276], which “anti-cytopathic activity” value [1] is on record?
A: moderately potent

Q: For `CNS(=O)(=O)Nc1nccc(Cc2c(C)c3ccc(Oc4ncccn4)cc3oc2=O)c1F` [RO5126766], which IC50 [2] is on record?
A: 18.2 µM

Q: And the CC50 [3]?
A: > 20 µM

Q: For `Cc1cccc2c1CC[C@H](CN1CCC(c3c(Cl)cccc3Cl)CC1)C[C@@H]2O` [SB-612111], which IC50 [2] is on record?
A: 0.77 µM

Q: Which “activity in the primary screen (in words)” value [4, 11] does the source give for `CCN(CC)Cc1cc(Nc2ccnc3cc(Cl)ccc23)ccc1O` [amodiaquine] here?
A: inactive

Q: Which IC50 [2] does the source give for `N#CC(c1ccnc(OCc2ccc(CN3CCOCC3)cc2)n1)c1nc2ccccc2s1` (stereo not drawn) [bentamapimod] here?
A: 5.9 µM

Q: And the CC50 at 48 h [3]?
A: > 20 µM

Q: What does the source list for `CN(C)C(=O)COC(=O)Cc1ccc(OC(=O)c2ccc(NC(=N)N)cc2)cc1` [camostat]?
A: IC50 [2]: < 1 µM; IC50 ([5]; ref 23): > 50 µM; IC50 ([5]; ref 24): 1 µM; IC50 [6]: 1 µM; IC50 [7]: ~1 µM

Q: Which “activity in the primary screen (in words)” value [4, 11] does the source give for `C[C@H](CS)C(=O)N1CCC[C@H]1C(=O)O` [captopril] here?
A: did not identify

Q: With `CCN(CC)CCCC(C)Nc1ccnc2cc(Cl)ccc12` (stereo not drawn) [chloroquine diphosphate] as the molecule, how does the “activity in the primary screen (in words)” value ([4]; 48 h) read?
A: inactive

Q: What does the source list for `CCN(CC)CCCC(C)Nc1ccnc2cc(Cl)ccc12` (stereo not drawn) [chloroquine]?
A: IC50 [2]: > 20 µM; IC50 ([5]; ref 22): 1.13 µM; IC50 ([5]; ref 55): 46.8 µM; IC50 [8, 12]: 6.28 µM; anti-cytopathic activity against SARS-CoV-2 (in words) [1]: not observed; IC50 ([9]; Vero-E6, ref 56): 4.4 µM

Q: For `C=C(c1ccccc1OCc1cccc(Cl)c1)n1ccnc1` [cloconazole], which IC50 ([1]; read-out: Results SARS-CoV-2 (Caco-2) IC50) is on record?
A: ≥ 20 µM

Q: For `C[C@@H]1C[C@@H]([C@H](O)CC2CC(=O)NC(=O)C2)C(=O)[C@@H](C)C1` [cycloheximide], which IC50 [2] is on record?
A: 0.58 ± 0.02 µM

Q: What about the IC50 ([8]; read-out: Reports MERS (Vero-E6) IC50) of the same molecule?
A: 0.16 µM

Q: What about the CC50 at 48 h [3] of the same molecule?
A: > 20 µM

Q: And the IC50 [9]?
A: 0.043 µM

Q: Which “activity in the primary screen (in words)” value [4, 11] does the source give for `CC(C)CN(C[C@@H](O)[C@H](Cc1ccccc1)NC(=O)O[C@H]1CO[C@H]2OCC[C@H]21)S(=O)(=O)c1ccc(N)cc1` [darunavir] here?
A: inactive

Q: Which IC50 [2] does the source give for `CC[C@H]1CN2CCc3cc(OC)c(OC)cc3[C@@H]2C[C@@H]1C[C@H]1NCCc2cc(OC)c(OC)cc21` [emetine] here?
A: 0.52 ± 0.09 µM

Q: What about the IC50 ([8]; Vero-E6, ref 54, read-out: Reports MERS (Vero-E6) IC50) of the same molecule?
A: 0.08 µM

Q: And the CC50 [3]?
A: 1.13 ± 0.5 µM

Q: What about the “CI (cytotoxicity index)” value ([1]; human) of the same molecule?
A: 2

Q: And the IC50 ([9]; Vero-E6, ref 53)?
A: 0.051 µM

Q: With `COC(=O)C[C@](O)(CCCC(C)(C)O)C(=O)O[C@@H]1C(OC)=C[C@]23CCCN2CCc2cc4c(cc2[C@H]13)OCO4` [homo-harringtonine] as the molecule, how does the “anti-cytopathic activity” value [1] read?
A: identified

Q: Which “activity in the primary screen (in words)” value [4, 11] does the source give for `CCN(CCO)CCCC(C)Nc1ccnc2cc(Cl)ccc12` (stereo not drawn) [hydroxychloroquine] here?
A: inactive

Q: With `Cc1cccc(C)c1OCC(=O)N[C@@H](Cc1ccccc1)[C@@H](O)C[C@H](Cc1ccccc1)NC(=O)[C@H](C(C)C)N1CCCNC1=O` [lopinavir] as the molecule, how does the IC50 ([5]; ref 23) read?
A: 9.12 µM

Q: And the “Reports MERS (Vero-6, Calu-3 or BHK21) IC50” value ([8]; Vero-E6, ref 57, 58)?
A: not active

Q: And the IC50 ([8]; Vero-E6, ref 57, 58, read-out: Reports MERS (Vero-6, Calu-3 or BHK21) IC50)?
A: 8 µM

Q: And the “anti-cytopathic activity” value [1]?
A: active at the highest concentration

Q: With `CCCCN(CCCC)CC(O)c1cc(Cl)cc2c1-c1ccc(Cl)cc1/C2=C/c1ccc(Cl)cc1` (stereo not drawn) [lumefantrine] as the molecule, how does the “activity in the primary screen (in words)” value [4, 11] read?
A: inactive

Q: Which results are given for `OC(c1cc(C(F)(F)F)nc2c(C(F)(F)F)cccc12)C1CCCCN1` (stereo not drawn) [mefloquine]?
A: IC50 ([5]; ref 23): 4.33 µM; IC50 ([5]; ref 55): 8.06 µM; IC50 [8, 12]: 15.5 µM; activity in the primary screen (in words) [4, 11]: identified in the primary screen; IC50 ([9]; Vero-E6, ref 53): 7.41 µM

Q: What does the source list for `N=C(N)c1ccc2cc(OC(=O)c3ccc(N=C(N)N)cc3)ccc2c1` [nafamostat]?
A: IC50 ([5]; ref 27, 28): 22.5 µM; IC50 [6]: 0.1 µM; potency against SARS-CoV-2 in Caco-2 cell assay relative to previous studies using Vero-E6 cells ([1]; comparison with refs 27, 28): > 500 fold

Q: Which IC50 [10] does the source give for `COc1ccc(Cc2nccc3cc(OC)c(OC)cc23)cc1OC` [papaverine] here?
A: 9.45 µM

Q: With `NS(=O)(=O)OC[C@@H]1C[C@@H](n2ccc3c(N[C@H]4CCc5ccccc54)ncnc32)C[C@@H]1O` [pevonedistat] as the molecule, how does the IC50 [2] read?
A: < 1 µM

Q: With `COc1cc(NC(C)CCCN)c2ncccc2c1` (stereo not drawn) [primaquine] as the molecule, how does the “activity in the primary screen (in words)” value [4, 11] read?
A: inactive

Q: With `COc1ccc2nc3cc(Cl)ccc3c(Nc3cc(CN4CCCC4)c(O)c(CN4CCCC4)c3)c2n1` [pyronaridine] as the molecule, how does the “activity in the primary screen (in words)” value [4, 11] read?
A: inactive

Q: And the “inhibition of cytopathicity in the concentration-response screen” value [1]?
A: < 50%

Q: Which results are given for `CCC(CC)COC(=O)[C@H](C)N[P@](=O)(OC[C@H]1O[C@@](C#N)(c2ccc3c(N)ncnn23)[C@H](O)[C@@H]1O)Oc1ccccc1` [remdesivir]?
A: IC50 [2]: 0.76 ± 0.18 µM; CC50 [3]: > 20 µM; IC50 ([9]; Vero-E6, ref 22): 0.069 µM

Q: For `CC(C)c1nc(CN(C)C(=O)N[C@H](C(=O)N[C@@H](Cc2ccccc2)C[C@H](O)[C@H](Cc2ccccc2)NC(=O)OCc2cncs2)C(C)C)cs1` [ritonavir], which “activity in the primary screen (in words)” value ([4]; 48 h) is on record?
A: inactive

Q: Which “activity in the primary screen (in words)” value [4, 11] does the source give for `COc1cc(C)c2c(Oc3cccc(C(F)(F)F)c3)c(OC)cc(NC(C)CCCN)c2n1` (stereo not drawn) [tafenoquine] here?
A: inactive

Q: What about the “inhibition of cytopathicity in the concentration-response screen” value [1] of the same molecule?
A: < 50%

Q: With `C[C@@H]1CN(Cc2ccc(F)cc2)[C@@H](C)CN1C(=O)c1cc2c(C(=O)C(=O)N(C)C)cn(C)c2cc1Cl` [talmapimod] as the molecule, how does the IC50 [2] read?
A: 9.6 µM

Q: What about the CC50 [3] of the same molecule?
A: > 20 µM

Q: Which IC50 [2] does the source give for `Nc1nc2c(ncn2[C@@H]2O[C@H](CO)[C@@H](O)[C@H]2O)c(=S)[nH]1` [thioguanosine] here?
A: 0.78 µM

Q: What about the “CI (cytotoxicity index)” value ([1]; printed as CI = IC50/CC50, Caco-2 toxicity versus SARS-CoV-2 anti-cytopathic effect) of the same molecule?
A: < 3
